# Laboratory results published in paper PMC314469, “Protein Interaction Networks by Proteome Peptide Scanning” (PLoS Biology, 2004).
# System: Myo5 SH3 domain
# Experiment: SPOT analysis of cellulose-bound peptides (WISE), Myo5 SH3 domain (Dataset S4)
# Type: binding, Saccharomyces cerevisiae
# Conditions: SPOT analysis of cellulose-bound 14-mer yeast proteome peptides, Myo5 SH3 domain; normalized value; mean where the peptide was synthesized more than once
row,Sequence,The normalized value in BLU units
1,ELRTLFVPLIPSVT,293.5 BLU
2,ELYYLNDPKYPGTK,0.0 BLU
3,ENTPRPNPTQPRKP,137.3 BLU
4,EPEPLMSPVPPSSA,215.2 BLU
5,ERDGRGVPLGPRNH,121.3 BLU
6,ETSLRVLPIAPKIF,548.0 BLU
7,FANIKREPVHPEIR,188.2 BLU
8,FARTLKIPNEPSPG,145.7 BLU
9,FEDHHITPCKPGGQ,67.9 BLU
10,FEESMNNPLPPLPP,168.9 BLU
11,FEKRYYVPEDPSQD,120.8 BLU
12,FEMVFRHPEQPHMI,309.9 BLU
13,FESFLRPPSTPDLP,70.2 BLU
14,FFFFHLSPSIPFWF,6490.2 BLU
15,FFQLMQSPSLPLLM,829.6 BLU
16,FFYRRDIPDVPITT,138.0 BLU
17,FHDPKFIPNKPYRQ,299.7 BLU

row,Sequence,The normalized value in BLU units
1,FLRTMAQPTDPKDQ,256.6 BLU
2,FLSRYPVPDLPIYL,1340.1 BLU
3,FLSYMSEPKYPSNE,141.6 BLU
4,FLTVYILPKNPFRV,1470.4 BLU
5,FPKKMGPPQWPFST,279.0 BLU
6,GARFLPAPHRPEKY,152.9 BLU
7,GEFFHCSPNIPHYA,271.2 BLU
8,GEYDLIMPIYPYRL,242.0 BLU
9,GFVFFIAPHLPVDL,507.5 BLU
10,GLIAHQGPQFPVMG,238.5 BLU
11,GLIGMNDPPRPNVK,115.5 BLU
12,GLLLLFVPDSPYDP,21.6 BLU
13,GLRELFLPGMPGLM,159.7 BLU
14,GLVLRSTPVIPDMK,209.2 BLU
15,GPIIHPGPEPPRYD,205.1 BLU
16,GPLLLTVPELPEAD,162.3 BLU
17,GPSQFAPPPPPPGV,20435.9 BLU

# Same assay, conditions: SPOT analysis of cellulose-bound peptides probed with Myo5 SH3 domain; normalized value
row,Sequence,"The normalized value in BLU units (SPOT analysis, Myo5 SH3)"
1,ELRDLDIPLVPSPK,75.3 BLU
2,ELRKLVQPITPIIK,170.0 BLU
3,EPATLPLPGTPTLA,61.8 BLU
4,EPIAHLFPPGPKNP,356.3 BLU
5,EPPSWKPPDLPIRL,86972.2 BLU
6,EWPGLDPPYIPLDF,62.7 BLU
7,FASQLRKPRAPMRN,459.9 BLU
8,FAYSLGLPGAPKIK,75.8 BLU
9,FENLLMEPNLPFFT,202.2 BLU
10,FESTLPIPTYPREG,122.0 BLU
11,FFNRYPNPYSPHVL,136.7 BLU
12,FFPIMSLPVTPVKS,122.3 BLU
13,FFTIWFIPLVPVFW,396.7 BLU
14,FLALFSDPARPFLT,451.5 BLU
15,FLPVFNLPSNPALF,154.3 BLU
16,FLYPYDDPNAPIDE,55.4 BLU
17,FPFYLSFPFCPSFP,759.9 BLU
18,FWKIHLSPPLPSFK,965.5 BLU
19,GAGGLGCPALPYLA,110.6 BLU
20,GAPPLPVPNGPAVG,222.0 BLU
21,GEIMFPAPPLPIAN,2774.8 BLU
22,GESHYKPPSTPKIN,721.8 BLU
23,GETQWRIPYLPLDP,106.2 BLU
24,GETRWRIPYLPLDP,118.4 BLU
25,GFDGYMQPIIPGKT,158.4 BLU
26,GLDALNIPHKPKQL,167.1 BLU
27,GLHDYTSPASPKQT,129.7 BLU
28,GLLTYKGPKVPYQK,150.1 BLU
29,GLRWYRSPIYPYLY,468.1 BLU
30,GPEFWISPDTPLKF,87.4 BLU

# Same assay, conditions: SPOT analysis of membrane-bound peptides, Myo5 SH3 domain; normalized value (see methods)
row,Sequence,The normalized value in BLU units
1,ELQIRYKPTPPLKK,171.0 BLU
2,EVENKLRPDLPVKN,40.7 BLU
3,EWEEKLTPAGPLCP,297.2 BLU
4,EYFPREYPKDPVSE,272.2 BLU
5,EYSPRPSPWLPSKP,73.7 BLU
6,FENRKHQPFTPKGM,211.2 BLU
7,FIKNKAKPLIPIEL,656.3 BLU
8,FLHSKKIPEVPQTD,287.9 BLU
9,FNGDRLVPTLPTVS,160.6 BLU
10,FQYTKGRPLAPKGA,235.2 BLU
11,FRPHRLAPSAPATK,1405.4 BLU
12,FVSPRRAPKPPSYP,1581.6 BLU
13,FYDFRSLPKVPTTQ,336.7 BLU
14,FYKEKAKPLEPILD,87.7 BLU
15,GENIKITPQKPFWF,115.0 BLU
16,GFLSKKVPNTPVVV,71.3 BLU
17,GFQDRSLPHFPKNS,178.5 BLU
18,GIKVKRIPYSPKSI,390.6 BLU
19,GLDLKWEPSTPQRK,164.4 BLU
20,GLNLKWEPSTPQRN,104.8 BLU
21,GQQKRFSPSLPSAV,728.5 BLU
22,GRSLRKRPTSPSIS,819.6 BLU
23,GSLVKTKPTLPLTK,421.7 BLU
24,GSQWKNHPDWPFWV,108.4 BLU

# Same assay, conditions: SPOT analysis of membrane-synthesized peptides probed with Myo5 SH3 domain; normalized value
row,Sequence,"The normalized value in BLU units (SPOT analysis, Myo5 SH3)"
1,ENENKKLPPAPTVF,67.7 BLU
2,ETGVRYGPEFPLCT,96.2 BLU
3,ETKKKWQPLPPEPL,255.8 BLU
4,ETTTRETPLPPIPA,178.3 BLU
5,EVLRKYIPGEPEFL,168.7 BLU
6,FASEKGAPFFPNKT,358.8 BLU
7,FEEDKMTPSTPVRS,248.5 BLU
8,FEYSKYRPLTPSSE,143.0 BLU
9,FGSNKNNPVPPELT,171.5 BLU
10,FGTAKILPEEPSNT,153.4 BLU
11,FHPEKLTPYTPMTG,96.5 BLU
12,FKVYRWNPDEPSAK,99.0 BLU
13,FLLKKMFPAPPLPT,23725.0 BLU
14,FLQDRVIPIFPHYP,260.9 BLU
15,FQDYRCSPWCPSRS,263.5 BLU
16,FQPQRTAPKPPISA,88304.9 BLU

row,Sequence,"The normalized value in BLU units (SPOT analysis, Myo5 SH3)"
1,FSKKKEAPEDPKNL,148.1 BLU
2,FSTKKSKPIRPFVF,378.5 BLU
3,FVFFKSLPDLPKPQ,859.9 BLU
4,GDEERFLPNRPHYE,125.8 BLU
5,GDHPKGPPPPPPPD,40130.9 BLU
6,GDHPKGPPPPPPPP,20184.2 BLU
7,GEMVKLTPKNPFYK,408.3 BLU
8,GHKKKNLPKFPKNK,789.2 BLU
9,GIMIKAKPSSPYTY,235.9 BLU
10,GKDHRLAPNGPGMH,217.5 BLU
11,GKMVKWGPLRPFLS,644.7 BLU
12,GLMSKLGPNLPASI,287.3 BLU
13,GNNSRNIPPPPPPP,10334.3 BLU
14,GQIDRDKPSEPERT,100.5 BLU
15,GRHLKNIPRIPIFC,1042.1 BLU
